EP0357369B1, “The use of asymetric membranes in delivery devices” (priority 1988, dated 1990)
≈ marks a conversion by molar mass, not a printed value. Read-outs that look alike come from different tables or passages of the source.

How the values were obtained:
[1] = Drug solubility in receptor solutions and excipient solutions; type: physicochemical
[2] = Osmotic pressure of saturated solutions of drug and excipients; type: physicochemical; settings: saturated solution of the labelled drug or of drug and the other tablet excipients; also printed as about 3 atm

Row | solubility ([1]; aqueous buffer, gastric buffer pH 1.5, read-out: Doxazosin solubility in the gastric buffer) [mg/mL] | solubility ([1]; aqueous buffer, intestinal buffer pH 7.5, read-out: Doxazosin solubility in the intestinal buffer) [mg/mL] | solubility ([1]; dextrose solutions adjusted to pH 4 with tartaric acid, read-out: doxazosin solubility in all the dextrose solutions) [mg/mL] | solubility ([1]; water, same in lactose and dextrose solutions adjusted to pH 4 with tartaric acid, read-out: doxazosin solubility in water) [mg/mL] | Trimazosin solubility lower in a saturated calcium lactate solution than in water [1] | solubility of trimazosin ([1]; water and 4 wt% magnesium sulfate solution) | osmotic pressure of a saturated solution [2] | SMILES | solubility of trimazosin in the magnesium sulfate solution ([1]; 2.4-wt% magnesium sulfate solution compared with water)
1 | ~0.25 (≈ 0.554 mM) | < 0.01 | ~10 (≈ 22.1 mM) | 10 (≈ 22.1 mM) | – | – | – | COc1cc2nc(N3CCN(C(=O)C4COc5ccccc5O4)CC3)nc(N)c2cc1OC (centres unmarked) [doxazosin] | –
2 | – | – | – | – | about 40% | the same in both solutions | about 304 kPa | COc1cc2c(N)nc(N3CCN(C(=O)OCC(C)(C)O)CC3)nc2c(OC)c1OC [trimazosin] | the same as the trimazosin solubility in water
